# Measurements taken from ChEMBL document CHEMBL5390198, “Scaffold hopping of N-benzyl-3,4,5-trimethoxyaniline: 5,6,7-Trimethoxyflavan derivatives as novel potential anticancer agents modulating hippo signaling pathway” (2023).
# Calls of active or inactive are those of the source. The calls are words filed in the database; no cut-off is given here.
# What was measured:
# A549 [1] = experiment: cells; type: functional; details: Homo sapiens, time 24-72 hrs
# Description: Antiproliferative activity against human A549 cells assessed as inhibition of cell growth at 10 uM measured after 24 to 72 hrs by SRB method relative to control
# EKVX = experiment: cells; type: functional; details: Homo sapiens, time 24-72 hrs
# Description: Antiproliferative activity against human EKVX cells assessed as inhibition of cell growth at 10 uM measured after 24 to 72 hrs by SRB method relative to control
# HOP-62 = experiment: Antiproliferative activity against human HOP-62 cells assessed as inhibition of cell growth at 10 uM measured after 24 to 72 hrs by SRB method relative to control; type: functional; details: time 24-72 hrs
# HOP-92 = experiment: cells; type: functional; details: Homo sapiens, time 24-72 hrs
# Description: Antiproliferative activity against human HOP-92 cells assessed as inhibition of cell growth at 10 uM measured after 24 to 72 hrs by SRB method relative to control
# NCI-H226 = experiment: cells; type: functional; details: Homo sapiens, time 24-72 hrs
# Description: Antiproliferative activity against human NCI-H226 cells assessed as inhibition of cell growth at 10 uM measured after 24 to 72 hrs by SRB method relative to control
# NCI-H23 = experiment: cells; type: functional; details: Homo sapiens, time 24-72 hrs
# Description: Antiproliferative activity against human NCI-H23 cells assessed as inhibition of cell growth at 10 uM measured after 24 to 72 hrs by SRB method relative to control
# NCI-H322M = experiment: Antiproliferative activity against human NCI-H322M cells assessed as inhibition of cell growth at 10 uM measured after 24 to 72 hrs by SRB method relative to control; type: functional; details: time 24-72 hrs
# NCI-H460 = experiment: cells; type: functional; details: Homo sapiens, time 24-72 hrs
# Description: Antiproliferative activity against human NCI-H460 cells assessed as inhibition of cell growth at 10 uM measured after 24 to 72 hrs by SRB method relative to control
# NCI-H522 = experiment: Antiproliferative activity against human NCI-H522 cells assessed as inhibition of cell growth at 10 uM measured after 24 to 72 hrs by SRB method relative to control; type: functional; details: time 24-72 hrs
# CCRF-CEM = experiment: Antiproliferative activity against human CCRF-CEM cells assessed as inhibition of cell growth at 10 uM measured after 24 to 72 hrs by SRB method relative to control; type: functional; details: time 24-72 hrs
# HL-60 = experiment: Antiproliferative activity against human HL-60 cells assessed as inhibition of cell growth at 10 uM measured after 24 to 72 hrs by SRB method relative to control; type: functional; details: time 24-72 hrs
# K562 = experiment: Antiproliferative activity against human K562 cells assessed as inhibition of cell growth at 10 uM measured after 24 to 72 hrs by SRB method relative to control; type: functional; details: time 24-72 hrs
# MOLT-4 = experiment: Antiproliferative activity against human MOLT-4 cells assessed as inhibition of cell growth at 10 uM measured after 24 to 72 hrs by SRB method relative to control; type: functional; details: time 24-72 hrs
# RPMI-8226 = experiment: Antiproliferative activity against human RPMI-8226 cells assessed as inhibition of cell growth at 10 uM measured after 24 to 72 hrs by SRB method relative to control; type: functional; details: time 24-72 hrs
# SR = experiment: Antiproliferative activity against human SR cells assessed as inhibition of cell growth at 10 uM by measured after 24 to 72 hrs SRB method relative to control; type: functional; details: time 24-72 hrs
# COLO 205 = experiment: Growth inhibition of human COLO 205 cells measured after 24 to 72 hrs by SRB method; type: functional; details: time 24-72 hrs
# KM12 = experiment: Growth inhibition of human KM12 cells measured after 24 to 72 hrs by SRB method; type: functional; details: time 24-72 hrs
# A549 [2] = experiment: Induction of apoptosis in human A549 cells assessed as decrease in caspase-3 expression measured after 48 hrs by Western blot analysis; type: functional, cell-based; details: dose <= 4.0 µM
# A549 [3] = experiment: Induction of apoptosis in human A549 cells assessed as decrease in PARP expression measured after 48 hrs by Western blot analysis; type: functional, cell-based; details: dose <= 4.0 µM
# A549 [4] = experiment: Induction of apoptosis in human A549 cells assessed as increase necrotic cell death at 1 to 4 uM measured after 48 hrs by annexin V-FITC/PI staining based flow cytometry analysis; type: functional; details: dose 1-4 µM
# A549 [5] = experiment: Induction of apoptosis in human A549 cells assessed as increase in apoptotic cells measured after 48 hrs by annexin V-FITC/PI staining based flow cytometry analysis; type: functional, cell-based; details: dose 1-4 µM
# A549 [6] = experiment: Induction of apoptosis in human A549 cells assessed as increase in cleaved PARP expression measured after 48 hrs by Western blot analysis; type: functional, cell-based; details: dose <= 4.0 µM
# MCF7 = experiment: Antiproliferative activity against human MCF7 cells assessed as inhibition of cell growth at 10 uM measured after 24 to 72 hrs by SRB method relative to control; type: functional; details: time 24-72 hrs
# MDA-MB-231 = experiment: Antiproliferative activity against human MDA-MB-231 cells assessed as inhibition of cell growth at 10 uM measured after 24 to 72 hrs by SRB method relative to control; type: functional; details: time 24-72 hrs
# Hs-578T = experiment: Antiproliferative activity against human Hs-578T cells assessed as inhibition of cell growth at 10 uM measured after 24 to 72 hrs by SRB method relative to control; type: functional; details: time 24-72 hrs
# BT-549 = experiment: Antiproliferative activity against human BT-549 cells assessed as inhibition of cell growth at 10 uM measured after 24 to 72 hrs by SRB method relative to control; type: functional; details: time 24-72 hrs
# T47D = experiment: Antiproliferative activity against human T47D cells assessed as inhibition of cell growth at 10 uM measured after 24 to 72 hrs by SRB method relative to control; type: functional; details: time 24-72 hrs
# MDA-MB-468 = experiment: Antiproliferative activity against human MDA-MB-468 cells assessed as inhibition of cell growth at 10 uM measured after 24 to 72 hrs by SRB method relative to control; type: functional; details: time 24-72 hrs
# A549 [7] = experiment: Induction of apoptosis in human A549 cells assessed as increase in cleaved caspase-3 expression measured after 48 hrs by Western blot analysis; type: functional, cell-based; details: dose <= 4.0 µM
# A549 [8] = experiment: Induction of apoptosis in human A549 cells assessed as increase in cleaved caspase-7 expression measured after 48 hrs by Western blot analysis; type: functional, cell-based; details: dose <= 4.0 µM
# A549 [9] = experiment: Induction of cell cycle arrest in human A549 cells assessed as increase in number of cells in G2/M phase by flow cytometry analysis; type: functional, cell-based; details: dose 1-4 µM
# A549 [10] = experiment: Induction of cell cycle arrest in human A549 cells assessed as decrease in number of cells in G0/G1 phase at 1 to 4 uM by flow cytometry analysis; type: functional, cell-based; details: dose 1-4 µM
# A549 [11] = experiment: Induction of cell cycle arrest in human A549 cells assessed as decrease in cyclin A1 expression measured after 24 hrs by Western blot analysis; type: functional, cell-based; details: dose 1-4 µM
# A549 [12] = experiment: Induction of cell cycle arrest in human A549 cells assessed as decrease in cyclin B1 expression measured after 24 hrs by Western blot analysis; type: functional, cell-based; details: dose 1-4 µM
# A549 [13] = experiment: Induction of cell cycle arrest in human A549 cells assessed as decrease in cyclin H expression measured after 24 hrs by Western blot analysis; type: functional, cell-based; details: dose 1-4 µM
# A549 [14] = experiment: Induction of cell cycle arrest in human A549 cells assessed as decrease in Cdc25c expression measured after 24 hrs by Western blot analysis; type: functional, cell-based; details: dose 1-4 µM
# A549 [15] = experiment: Induction of cell cycle arrest in human A549 cells assessed as increase in p53 expression measured after 24 hrs by Western blot analysis; type: functional, cell-based; details: dose 1-4 µM
# A549 [16] = experiment: Activation of Hippo signaling pathway in human A549 cells assessed as decrease in YAP incubated for 24 hrs by Western blotting analysis; type: cell-based; details: filed as activator, dose <= 4.0 µM
# A549 [17] = experiment: Activation of Hippo signaling pathway in human A549 cells assessed as increase in […] at upto 4 uM incubated for 24 hrs by Western blotting analysis; type: cell-based; details: filed as activator
# A549 [18] = experiment: Activation of Hippo signaling pathway in human A549 cells assessed as increase in p-MOB1/MOB1 ratio at upto 4 uM incubated for 24 hrs by Western blotting analysis; type: cell-based; details: filed as activator
# A549 [19] = experiment: Inhibition of PI3K/AKT/mTOR signalling pathway in human A549 cells assessed as inhibition of P70S6K phosphorylation measured after 24 hrs by Western blot analysis; type: cell-based; details: dose <= 4.0 µM
# SF-268 = experiment: Growth inhibition of human SF-268 cells measured after 24 to 72 hrs by SRB method; type: functional; details: time 24-72 hrs
# SF-295 = experiment: Growth inhibition of human SF-295 cells measured after 24 to 72 hrs by SRB method; type: functional; details: time 24-72 hrs
# MDA-MB-435 = experiment: Growth inhibition of human MDA-MB-435 cells measured after 24 to 72 hrs by SRB method; type: functional; details: time 24-72 hrs
# SK-MEL-28 = experiment: Growth inhibition of human SK-MEL-28 cells measured after 24 to 72 hrs by SRB method; type: functional; details: time 24-72 hrs
# ACHN = experiment: Growth inhibition of human ACHN cells measured after 24 to 72 hrs by SRB method; type: functional; details: time 24-72 hrs
# A498 = experiment: Growth inhibition of human A498 cells measured after 24 to 72 hrs by SRB method; type: functional; details: time 24-72 hrs
# SK-OV-3 = experiment: Growth inhibition of human SK-OV-3 cells measured after 24 to 72 hrs by SRB method; type: functional; details: pooled result: one value given for 7 cell lines, strains, targets or settings, time 24-72 hrs
# PC-3 [20] = experiment: Growth inhibition of human PC-3 cells measured after 24 to 72 hrs by SRB method; type: functional; details: time 24-72 hrs
# DU-145 [21] = experiment: Growth inhibition of human DU-145 cells measured after 24 to 72 hrs by SRB method; type: functional; details: time 24-72 hrs
# PC-3 [22] = experiment: Potency index, ratio of enzalutamide GI50 to test compound GI50 for growth inhibition of human PC-3 cells measured after 24 to 72 hrs by SRB method; type: functional; details: time 24-72 hrs
# DU-145 [23] = experiment: Potency index, ratio of enzalutamide GI50 to test compound GI50 for growth inhibition of human DU-145 cells measured after 24 to 72 hrs by SRB method; type: functional; details: time 24-72 hrs
# SNB-19 = experiment: Growth inhibition of human SNB-19 cells measured after 24 to 72 hrs by SRB method; type: functional; details: time 24-72 hrs
# U-251 = experiment: Growth inhibition of human U-251 cells measured after 24 to 72 hrs by SRB method; type: functional; details: time 24-72 hrs
compound,measurement,setting,value
COc1ccc(C(=O)Nc2cccc(C3CCc4c(cc(OC)c(OC)c4OC)O3)c2)cc1 (stereo not given),inhibition at 10 µM,A549 [1],56.6%
same,inhibition at 10 µM,EKVX,45.3%
same,inhibition at 10 µM,HOP-62,60.2%
same,inhibition at 10 µM,HOP-92,38.7%
same,inhibition at 10 µM,NCI-H226,69.9%
same,inhibition at 10 µM,NCI-H23,41.1%
same,inhibition at 10 µM,NCI-H322M,24.1%
same,inhibition at 10 µM,NCI-H460,74.3%
same,inhibition at 10 µM,NCI-H522,57.3%
same,inhibition at 10 µM,CCRF-CEM,> 60%
same,inhibition at 10 µM,HL-60,> 60%
same,inhibition at 10 µM,K562,> 60%
same,inhibition at 10 µM,MOLT-4,> 60%
same,inhibition at 10 µM,RPMI-8226,> 60%
same,inhibition at 10 µM,SR,> 60%
COc1ccc(NC(=O)c2cccc(C3CCc4c(cc(OC)c(OC)c4OC)O3)c2)cc1 (stereo not given),GI50,COLO 205,2.4 µM
same,GI50,KM12,3.47 µM
same,Activity,A549 [2],Dose-Dependent Effect
same,Activity,A549 [3],Dose-Dependent Effect
same,Activity,A549 [4],inactive
same,Activity,A549 [5],Dose-Dependent Effect
same,Activity,A549 [6],Dose-Dependent Effect
same,inhibition at 10 µM,A549 [1],67.9%
same,inhibition at 10 µM,EKVX,53%
same,inhibition at 10 µM,HOP-62,69.3%
same,inhibition at 10 µM,HOP-92,102%
same,inhibition at 10 µM,NCI-H226,52.5%
same,inhibition at 10 µM,NCI-H23,47.9%
same,inhibition at 10 µM,NCI-H322M,46.1%
same,inhibition at 10 µM,NCI-H460,81.8%
same,inhibition at 10 µM,NCI-H522,78.2%
same,inhibition at 10 µM,MCF7,> 60%
same,inhibition at 10 µM,MDA-MB-231,> 60%
same,inhibition at 10 µM,Hs-578T,> 60%
same,inhibition at 10 µM,BT-549,> 60%
same,inhibition at 10 µM,T47D,> 60%
same,inhibition at 10 µM,MDA-MB-468,> 60%
same,inhibition at 10 µM,CCRF-CEM,> 60%
same,inhibition at 10 µM,HL-60,> 60%
same,inhibition at 10 µM,K562,> 60%
same,inhibition at 10 µM,MOLT-4,> 60%
same,inhibition at 10 µM,RPMI-8226,> 60%
same,inhibition at 10 µM,SR,> 60%
same,Activity,A549 [7],Dose-Dependent Effect
same,Activity,A549 [8],Dose-Dependent Effect
same,Activity,A549 [9],Dose-Dependent Effect
same,Activity,A549 [10],Active
same,Activity,A549 [11],Dose-Dependent Effect
same,Activity,A549 [12],Dose-Dependent Effect
same,Activity,A549 [13],Dose-Dependent Effect
same,Activity,A549 [14],Dose-Dependent Effect
same,Activity,A549 [15],Dose-Dependent Effect
same,Activity,A549 [16],Dose-Dependent Effect
same,Activity,A549 [17],Active
same,Activity,A549 [18],Active
same,inhibition,A549 [19],Dose-Dependent Effect
same,GI50,SF-268,5.13 µM
same,GI50,SF-295,2.51 µM
same,GI50,MDA-MB-435,0.52 µM
same,GI50,SK-MEL-28,4.07 µM
same,GI50,ACHN,4.27 µM
same,GI50,A498,1.38 µM
same,GI50,SK-OV-3,2.82 µM
same,GI50,PC-3 [20],1.58 µM
same,GI50,DU-145 [21],2.95 µM
same,fold change (FC),PC-3 [22],12
same,fold change (FC),DU-145 [23],12
CN(C)/N=N/c1[nH]cnc1C(N)=O [DACARBAZINE],GI50,MDA-MB-435,84.3 µM
same,GI50,SK-MEL-28,> 100 µM
Cn1nnc2c(C(N)=O)ncn2c1=O [TEMOZOLOMIDE],GI50,SF-268,> 100 µM
same,GI50,SF-295,> 100 µM
same,GI50,SNB-19,> 100 µM
same,GI50,U-251,> 100 µM
CNC(=O)c1ccc(N2C(=S)N(c3ccc(C#N)c(C(F)(F)F)c3)C(=O)C2(C)C)cc1F [ENZALUTAMIDE],GI50,PC-3 [20],22 µM
same,GI50,DU-145 [21],> 31 µM
